Data as given in patent US6204294A, “IL-8 receptor antagonists” (SmithKline Beecham Corporation, priority 1999, dated 2001).

Test system: recombinant human IL-8 type β receptor (IL-8Rβ, Type II, permissive receptor)
Experiment: Receptor binding assay, permissive model (IL-8b), [125I]IL-8 on CHO membranes
Settings: recombinant IL-8Rβ CHO membranes; compound without an ionizable proton in the 2-position
Source text: [^125 I]IL-8 (human recombinant) was obtained from Amersham Corp., Arlington Heights, Ill., with specific activity 2000 Ci/mmol. Gro-α was obtained from NEN- New England Nuclear. All other chemicals were of analytical grade. High levels of recombinant human IL-8 type α and β receptors were individually expressed in Chinese hamster ovary cells as described previously (Holmes, et al., Science, 1991, 253, 1278). The Chinese hamster ovary membranes were homogenized according to a previously described protocol (Haour, et al., J Biol Chem., 249 pp 2195-2205 (1974)). Except that the homogenization buffer was changed to 10mM Tris-HCL, 1mM MgS04, 0.5mM EDTA (ethylene-diaminetetra-acetic acid), 1mMPMSF (α-toluenesulphonyl fluoride), 0.5 mg/L Leupeptin, pH 7.5. Membrane protein concentration was determined using Pierce Co. micro-assay kit using bovine serum albumin as a standard. All assays were performed in a 96-well micro plate format. Each reaction mixture contained ^125 I IL-8 (0.25 nM) or ^125 I Gro-α and 0.5 μg/mL of IL-8Rα or 1.0 μg/mL of IL-8Rβ membranes in 20 mM Bis-Trispropane and 0.4 mM Tris HCl buffers, pH 8.0, containing 1.2 mM MgSO4, 0.1 mM EDTA, 25 mM NaCl and 0.03% CHAPS. […] The filter was then dried and counted on the Betaplate liquid scintillation counter. […]

## C=CCOc1cc(C#N)ccc1NC(=NC#N)Nc1ccccc1Br [N-(2-Allyloxy-4-cyano-phenyl)-N'-(2-bromophenyl)-N"-cyanoguanidine]
  activity in the permissive model (IL-8b) IL-8 receptor inhibition assay, result in words: inactive
